Results reported in ChEMBL document CHEMBL4145688, “Potent and Orally Bioavailable Inverse Agonists of RORγt Resulting from Structure-Based Design” (J Med Chem, 2018).
Values after ≈ are worked out from the molar mass of the structure shown.

Legend:
[1] = biological target: T1, Nuclear receptor ROR-gamma (Homo sapiens, UniProt P51449)
T1 sequence (P51449 whole entry): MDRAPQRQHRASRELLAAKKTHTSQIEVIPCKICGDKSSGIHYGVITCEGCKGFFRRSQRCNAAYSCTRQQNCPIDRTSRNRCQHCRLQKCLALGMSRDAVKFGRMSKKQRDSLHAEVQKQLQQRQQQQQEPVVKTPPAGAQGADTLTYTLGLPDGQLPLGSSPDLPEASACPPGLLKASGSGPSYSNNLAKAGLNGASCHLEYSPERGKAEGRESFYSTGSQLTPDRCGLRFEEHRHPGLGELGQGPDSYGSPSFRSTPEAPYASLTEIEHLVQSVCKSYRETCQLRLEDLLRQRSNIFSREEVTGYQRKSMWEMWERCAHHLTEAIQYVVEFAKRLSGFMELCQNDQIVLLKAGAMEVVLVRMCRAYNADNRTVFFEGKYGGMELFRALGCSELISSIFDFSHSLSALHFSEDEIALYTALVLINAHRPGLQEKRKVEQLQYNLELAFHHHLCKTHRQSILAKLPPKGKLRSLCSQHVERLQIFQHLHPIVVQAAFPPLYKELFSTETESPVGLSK

[2] = biological target: T1, Nuclear receptor ROR-gamma; remark: listed apart in the source
Description: Displacement of [3H]-2-(4-(ethylsulfonyl)phenyl)-N-(4-(2-(methoxymethyl)phenyl)thiophen-2-yl)acetamide from purified N-(HN)6-GST-TCS-human RORgammat (258 to 518 residues) incubated for 16 hrs by scintillation proximity assay

[3] = biological target: T1, Nuclear receptor ROR-gamma; test: Inverse agonist activity at RORgammat in human TH17 cells assessed as inhibition of IL17 release incubated for 4 days by HTRF assay; format: cell-based
[4] = Distribution coefficient between 1-octanol and aqueous phosphate buffer, logD of the compound in pH 7.4 buffer; format: physicochemical; conditions: 1-octanol/aqueous phosphate buffer
[5] = Permeability in human Caco2 cells assessed as drug recovery; format: ADME, cell-based; conditions: Caco-2, read-out: Drug recovery
[6] = Permeability from basolateral to apical side in human Caco2 cells; format: ADME, cell-based; conditions: for Papp B→A: Caco-2, read-out: permeability
[7] = Efflux ratio of permeability in human Caco2 cells; format: ADME, cell-based; conditions: Caco-2
[8] = Unbound fraction in human plasma by equilibrium dialysis; format: ADME, cell-free
[9] = Cytotoxicity in human Th17 cells assessed as effect on cell viability by cell-titer-Glo luminescent cell viability assay relative to control; format: cell-based; conditions: read-out: Efficacy
[10] = physchem; conditions: aqueous buffer, pH 7.4
Description: Solubility in aqueous buffer at pH 7.4

[11] = Permeability from apical to basolateral side in human Caco2 cells; format: ADME, cell-based; conditions: for Papp A→B: Caco-2, read-out: permeability
[12] = Intrinsic clearance in rat hepatocytes assessed per million cells; format: ADME, cell-based, Hepatocyte; conditions: read-out: CLH
[13] = Selectivity index, ratio of cytotoxicity in human Th17 cells to IC50 for inverse agonist activity at RORgammat in human TH17 cells assessed as inhibition of IL17 release; format: toxicity, cell-based
[14] = Oral bioavailability in Han Wistar rat at 1 mg/kg; format: ADME, organism-based; conditions: in vivo
[15] = Clearance in Han Wistar rat at 0.5 mg/kg, iv or 1 mg/kg, po; format: ADME, organism-based; conditions: in vivo
[16] = biological target: hERG (KCNH2) (Homo sapiens, UniProt Q12809); test: Inhibition of human ERG at 11 uM
hERG (KCNH2), sequence (Q12809 whole entry): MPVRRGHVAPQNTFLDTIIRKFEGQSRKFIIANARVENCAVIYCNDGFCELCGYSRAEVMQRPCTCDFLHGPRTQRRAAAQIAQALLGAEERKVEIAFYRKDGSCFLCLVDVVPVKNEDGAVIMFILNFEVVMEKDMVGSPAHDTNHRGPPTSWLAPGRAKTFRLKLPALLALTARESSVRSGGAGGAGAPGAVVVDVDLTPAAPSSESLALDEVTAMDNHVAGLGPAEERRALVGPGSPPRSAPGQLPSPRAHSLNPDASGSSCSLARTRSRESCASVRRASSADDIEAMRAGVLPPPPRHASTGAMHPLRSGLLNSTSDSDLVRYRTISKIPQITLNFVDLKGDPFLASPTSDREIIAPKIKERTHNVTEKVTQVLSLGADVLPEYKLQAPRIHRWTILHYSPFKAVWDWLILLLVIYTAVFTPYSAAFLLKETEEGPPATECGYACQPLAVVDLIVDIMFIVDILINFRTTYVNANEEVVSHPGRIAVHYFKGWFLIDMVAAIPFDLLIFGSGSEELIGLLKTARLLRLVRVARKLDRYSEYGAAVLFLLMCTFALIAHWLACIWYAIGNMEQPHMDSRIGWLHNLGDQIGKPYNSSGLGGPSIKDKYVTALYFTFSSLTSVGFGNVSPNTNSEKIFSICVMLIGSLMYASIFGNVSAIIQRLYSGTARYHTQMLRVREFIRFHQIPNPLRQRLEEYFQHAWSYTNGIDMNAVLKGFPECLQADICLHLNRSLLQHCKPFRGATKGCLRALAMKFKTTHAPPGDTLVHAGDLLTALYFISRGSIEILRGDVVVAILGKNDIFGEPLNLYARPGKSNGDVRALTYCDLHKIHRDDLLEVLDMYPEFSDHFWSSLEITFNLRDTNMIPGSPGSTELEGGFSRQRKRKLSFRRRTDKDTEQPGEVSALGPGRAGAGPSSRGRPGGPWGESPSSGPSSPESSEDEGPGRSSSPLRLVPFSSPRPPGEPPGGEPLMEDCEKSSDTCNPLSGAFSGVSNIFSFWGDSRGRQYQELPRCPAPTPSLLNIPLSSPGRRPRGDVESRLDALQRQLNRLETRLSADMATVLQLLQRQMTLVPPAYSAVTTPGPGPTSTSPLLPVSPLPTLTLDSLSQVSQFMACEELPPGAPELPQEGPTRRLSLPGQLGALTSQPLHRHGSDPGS

[17] = Volume of distribution at steady state in Han Wistar rat at 0.5 mg/kg, iv or 1 mg/kg, po; format: ADME, organism-based; conditions: in vivo, read-out: Vdss
[18] = Intrinsic clearance in human hepatocytes assessed per million cells; format: ADME, cell-based, Hepatocyte; conditions: read-out: CLH
[19] = Half life in Han Wistar rat at 0.5 mg/kg, iv or 1 mg/kg, po; format: ADME, organism-based; conditions: in vivo
[20] = Oral absorption in Han Wistar rat at 1 mg/kg; format: ADME, organism-based; conditions: in vivo, read-out: Fabs

IC50 [1] [µM] | IC50 [2] [µM] | IC50 [3] [µM] | logD [4] | hepatocyte CLint [12] [µL/min/1e6 cells] | Compound | Emax [9] [%] | further results
0.022 | 0.009 | 0.18 | > 4.2 |  | CCS(=O)(=O)c1ccc(CC(=O)Nc2nc(-c3cccc(Cl)c3)c(C(=O)c3ccccc3Cl)s2)cc1 |  | 
0.023 | 0.002 | 0.006 | 4.5 |  | CCS(=O)(=O)c1ccc(CC(=O)Nc2cc(-c3cccc(Cl)c3)c(C(=O)c3ccccc3Cl)s2)cc1 | 40 | recovery [5]: 52%; Papp B→A [6]: 6 nm/s; efflux ratio [7]: > 324; fraction unbound [8]: < 0.002; solubility [10]: < 0.1 µM; Papp A→B [11]: < 0.01 nm/s
 | 0.019 |  | ≥ 4 | 281 | CCS(=O)(=O)c1ccc(CC(=O)Nc2cc(-c3cccnc3OCc3cccc(C#N)c3)cs2)cc1 | 50 | 
0.03 | 0.02 | 0.7 | 3.9 | 11.3 | CCS(=O)(=O)c1ccc(CC(=O)Nc2cc(-c3cc(C#N)cc(F)c3OC)cs2)cc1 | 60 | recovery [5]: 41%; selectivity ratio [13]: < 10; Papp B→A [6]: 71 nm/s; bioavailability [14]: 85%; efflux ratio [7]: 3.9; clearance [15]: 0.33 L/h/kg; inhibition at 11 µM [16]: 43%; Vd [17]: 0.48 L/kg; fraction unbound [8]: 0.0017 to 0.002; hepatocyte CLint [18]: 5.6 µL/min/1e6 cells; solubility [10]: 0.4 to 0.6 µM (≈ 0.183 to 0.275 µg/mL); half-life [19]: 1.2 h; Papp A→B [11]: 18 nm/s; Fa [20]: 92%
0.029 | 0.011 | 0.025 | ≥ 4 | 45 | CCS(=O)(=O)c1ccc(CC(=O)Nc2cc(-c3cccnc3OC/C=C/c3ccccc3)cs2)cc1 | 40 | selectivity ratio [13]: 100
 |  |  | > 4.1 |  | CCS(=O)(=O)c1ccc(CC(=O)Nc2cc(-c3cccc(Cl)c3)cs2)cc1 |  | 
0.04 | 0.03 | > 3.3 | 3.5 |  | CCS(=O)(=O)c1ccc(CC(=O)Nc2cc(-c3cc(C#N)cnc3OC)cs2)cc1 |  | recovery [5]: 44%; permeability ([6]; Caco-2): 171 nm/s; fraction unbound [8]: 0.0009; permeability ([11]; Caco-2): 26 nm/s
0.11 | 0.41 |  | 3.6 | 13 | CCS(=O)(=O)c1ccc(CC(=O)Nc2cc(-c3cccnc3OC)cs2)cc1 |  | 
 | 0.029 |  | ≥ 4 | 125 | CCS(=O)(=O)c1ccc(CC(=O)Nc2cc(-c3cccnc3OCCc3ccccc3)cs2)cc1 | 70 | 
0.12 | 0.34 |  | 2.8 |  | CCS(=N)(=O)c1ccc(CC(=O)Nc2cc(-c3cc(C#N)ccc3OC)cs2)cc1 (stereo not drawn) |  | 
0.09 | 0.05 |  | > 4 |  | CCS(=O)(=O)c1ccc(CC(=O)Nc2cc(-c3cc(Cl)cc(C#N)c3)cs2)cc1 |  | 
0.7 | 1.85 |  | 2.8 |  | CCS(=O)(=O)c1ccc(CC(=O)Nc2cc(-c3cncnc3OC)cs2)cc1 |  | 
0.03 | 0.01 | 0.1 | ≥ 4 | 286 | CCS(=O)(=O)c1ccc(CC(=O)Nc2cc(-c3cccnc3OCc3ccc(C#N)cc3)cs2)cc1 | 50 | 
 | 0.046 |  | ≥ 4 | 196 | CCS(=O)(=O)c1ccc(CC(=O)Nc2cc(-c3cccnc3Oc3ccccc3)cs2)cc1 | 50 | 
0.05 | 0.018 | 0.1 |  | 17 | CCS(=O)(=O)c1ccc(CC(=O)Nc2cc(-c3cccnc3OCC(F)(F)F)cs2)cc1 |  | 
0.021 | 0.014 | 0.035 | ≥ 4 | > 300 | CCS(=O)(=O)c1ccc(CC(=O)Nc2cc(-c3cccnc3OCc3ccc(C(=O)OC)cc3)cs2)cc1 |  | selectivity ratio [13]: 100
 |  |  | 3.3 |  | CCS(=O)(=O)c1ccc(C(NC(C)=O)C(=O)Nc2cc(-c3cc(C#N)cc(F)c3OC)cs2)cc1 (stereo not drawn) |  | Papp B→A [6]: 180 nm/s; bioavailability [14]: 18%; Vd [17]: 0.34 L/kg; solubility [10]: 200 µM (≈ 103 µg/mL); Papp A→B [11]: 3 nm/s; Fa [20]: 19%

IC50 [1] [µM] | IC50 [2] [µM] | IC50 [3] [µM] | logD [4] | hepatocyte CLint [12] [µL/min/1e6 cells] | Compound | Emax [9] [%] | further results
0.055 | 0.066 | 0.64 | 3.4 | 10.4 | CCS(=O)(=O)c1ccc(C(NC(C)=O)C(=O)Nc2cc(-c3cccnc3Oc3ccc(C#N)cc3)cs2)cc1 (stereo not drawn) |  | 
0.44 | 1.29 |  | 3.4 |  | CC[S+]([O-])c1ccc(CC(=O)Nc2cc(-c3cc(C#N)cnc3OC)cs2)cc1 (stereo not drawn) |  | 
0.78 | 1.16 |  | 3.7 |  | CCS(=O)(=O)c1ccc(CC(=O)Nc2cc(-c3ccc(C#N)cc3Cl)cs2)cc1 |  | 
0.08 | 0.15 |  | ≥ 4 | 28 | CCOc1ncccc1-c1csc(NC(=O)Cc2ccc(S(=O)(=O)CC)cc2)c1 |  | 
0.452 | 0.075 | 1.69 | 3.2 | 11 | CCS(=O)(=O)c1ccc(C(N)C(=O)Nc2cc(-c3cc(C#N)cc(F)c3OC)cs2)cc1 (stereo not drawn) |  | 
3.25 | 3.25 |  | 3.2 |  | CCS(=O)(=O)N1CCC(CC(=O)Nc2cc(-c3cc(C#N)cnc3OC)cs2)CC1 |  | 
0.04 | 0.07 | > 3.3 | 3.5 |  | CNS(=O)(=O)c1ccc(CC(=O)Nc2cc(-c3cc(C#N)cnc3OC)cs2)cc1 |  | recovery [5]: 55%; Papp B→A [6]: 260 nm/s; efflux ratio [7]: 40; fraction unbound [8]: < 0.001; solubility [10]: 0.34 µM (≈ 0.15 µg/mL); Papp A→B [11]: 6.5 nm/s
0.03 | 0.02 | > 3.3 | 3.6 |  | CCS(=O)(=O)c1ccc(CC(=O)Nc2cc(-c3cc(C#N)ccc3OC)cs2)cc1 |  | recovery [5]: 41%; Papp B→A [6]: 120 nm/s; efflux ratio [7]: 7.6; fraction unbound [8]: 0.001; solubility [10]: 0.43 µM (≈ 0.189 µg/mL); Papp A→B [11]: 16 nm/s
 | 0.007 |  | > 4 | 24 | CCS(=O)(=O)c1ccc(C(NC(C)=O)C(=O)Nc2cc(-c3cccnc3OCc3ccccc3)cs2)cc1 (stereo not drawn) |  | 
 | 0.088 | 0.19 | 3.6 | 28 | CCS(=O)(=O)c1ccc(CC(=O)Nc2cc(-c3cccnc3Oc3ccc(C#N)cc3)cs2)cc1 |  | 
0.067 | 0.014 | 0.99 | 3.3 | 4 | CCS(=O)(=O)c1ccc(C(NC(C)=O)C(=O)Nc2cc(-c3cc(C#N)cnc3OC)cs2)cc1 (stereo not drawn) |  | 
 | 0.059 |  | ≥ 4 | 80 | CCCOc1ncccc1-c1csc(NC(=O)Cc2ccc(S(=O)(=O)CC)cc2)c1 | 40 | 
 | 0.017 | > 3.3 | ≥ 4 | 104 | CCS(=O)(=O)c1ccc(CC(=O)Nc2cc(-c3cccnc3OCCCc3ccccc3)cs2)cc1 | 30 | 
0.06 | 0.05 |  | 3.8 |  | CCS(=O)(=O)c1ccc(CC(=O)Nc2cc(-c3cc(C#N)ccc3Cl)cs2)cc1 |  | 
 | 0.02 |  | > 4 | 128 | CCS(=O)(=O)c1ccc(CC(=O)Nc2cc(-c3cccnc3OCc3ccccc3)cs2)cc1 | 30 | selectivity ratio [13]: < 10; fraction unbound [8]: 0.0003; solubility [10]: 0.42 µM (≈ 0.207 µg/mL)
0.075 | 0.006 | 0.032 | 4.6 | 9.1 | CCS(=O)(=O)c1ccc(C(NC(C)=O)C(=O)Nc2cc(-c3cccnc3OCc3ccc(OC(F)(F)F)cc3)cs2)cc1 (stereo not drawn) |  | 
